The target in this test is T1, recombinant human LTA4 hydrolase (rhLTA4H) (Homo sapiens, UniProt P09960).
T1 construct: made in house; host or cells: Spodoptera frugiperda (Sf-9) cells, baculovirus (pFastBac1)
T1 sequence (P09960 1-611): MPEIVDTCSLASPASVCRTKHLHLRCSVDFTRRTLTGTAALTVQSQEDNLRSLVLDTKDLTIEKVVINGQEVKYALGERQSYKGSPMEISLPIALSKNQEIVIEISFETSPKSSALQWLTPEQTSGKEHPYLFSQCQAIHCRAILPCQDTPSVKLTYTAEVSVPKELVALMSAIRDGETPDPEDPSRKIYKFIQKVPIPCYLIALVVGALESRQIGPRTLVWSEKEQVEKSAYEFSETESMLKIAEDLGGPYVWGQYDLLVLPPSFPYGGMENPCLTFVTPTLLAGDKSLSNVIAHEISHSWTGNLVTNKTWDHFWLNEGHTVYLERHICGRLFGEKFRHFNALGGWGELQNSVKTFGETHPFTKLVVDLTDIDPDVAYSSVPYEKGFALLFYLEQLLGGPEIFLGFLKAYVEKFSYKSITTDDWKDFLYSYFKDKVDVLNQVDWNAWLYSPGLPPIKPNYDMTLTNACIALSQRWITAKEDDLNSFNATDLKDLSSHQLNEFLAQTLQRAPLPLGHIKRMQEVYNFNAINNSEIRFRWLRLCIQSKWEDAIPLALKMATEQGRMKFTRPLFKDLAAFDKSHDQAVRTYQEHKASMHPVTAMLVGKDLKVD
Put plainly: Recombinant human LTA4 hydrolase assay for LTA4 hydrolase inhibitor activity. The class given is biochemical. How it is done:
Recombinant Human LTA4 Hydrolase Assay for LTA4 Hydrolase Inhibitor Activity
Compounds of the present invention were tested for LTA4 hydrolase inhibitor activity against recombinant human LTA4 hydrolase (rhLTA4H). Vectors were prepared and used to express rhLTA4H essentially as follows: LTA4 hydrolase encoding DNA was amplified by polymerase chain reaction (PCR) using a human placental cDNA library as a template. Oligonucleotide primers for the PCR reaction were based on the 5′-end, and the complement of the 3′-end, of the published nucleotide sequence for the coding region of the human LTA4 hydrolase gene (C. D. Funk et al., Proc. Natl. Acad. Sci. USA 1987, 84:6677-6681). The amplified […] DNA fragment encoding LTA4 hydrolase was isolated and cloned into the pFastBac1 vector (Invitrogen). Recombinant baculovirus was generated as described by the manufacturer, and used to infect Spodoptera frugiperda (Sf-9) cells. Recombinant LTA4 hydrolase enzyme was purified from the infected Sf-9 cells essentially as described by J. K. Gierse et al. (Protein Expr. Purif. 1993, 4(5):358-366). The purified enzyme solution was adjusted to contain 0.29 mg/mL LTA4 hydrolase, 50 mM Tris (pH 8.0),150 mM NaCl, 5 mM dithiothreitol, 50% glycerol, and EDTA-free Complete protease inhibitor cocktail (Roche). The specific activity of the enzyme was about 3.8 μmol/min/mg.
LTA4 substrate was prepared from the methyl ester of LTA4 (Cayman Chemical) by treatment with 67 equiv. of NaOH under nitrogen at rt for 40 min. The LTA4 substrate in its free acid form was kept frozen at −80° C. until needed. Each compound was diluted to different concentrations in assay buffer (0.1 M potassium phosphate (pH 7.4), 5 mg/mL fatty acid free BSA) containing 10% DMSO. A 25-μL aliquot of each compound dilution was incubated for 10 min at rt with an equal volume of assay buffer containing 36 ng of recombinant human LTA4H. The solution was then adjusted to 200 μL with assay buffer. LTA4 (free acid) was thawed and diluted in assay buffer to a concentration of 357 ng/mL, and 25 μL (9 ng) of LTA4 substrate was added to the reaction mixture (total volume=225 μL) at time zero. Each reaction was carried out at rt for 10 min. The reaction was stopped by diluting 10 μL of the reaction mixture with 200 μL of assay buffer. LTB4 was quantifiedin the diluted sample by a commercially available enzyme-linked immunoassay (Cayman Chemical Co.), as recommended by the manufacturer. Positive controls, under essentially identical conditions but without addition of an inhibitor compound, and negative controls, containing all assay components except enzyme, were routinely run in each experiment. IC50 values were determined by fitting the activity data at different compound concentrations to a 4-parameter equation using the Grafit program (Erithacus software).
The IC50 values presented in the table below should be expected to fall within the typical three-fold variability of assays of this type. The values presented here are, in general, an average of one to three determinations.

Where [1] appears, read: recombinant human LTA4H, LTB4 quantified by enzyme-linked immunoassay, average of one to three determinations, read-out: IC50.

We go through 31 compounds from US20060223792A1, “Phenyl and pyridyl LTA4H modulators” (priority 2005, published 2006).

Structures can show the parent of a compound that is named as a salt. Where two headings read alike, the source gives them in different places.

One may read the IC50 as the concentration needed to halve the response being measured.

Turning to `O=C(Nc1ccccc1)OCc1ccc(OCCN2CCCCC2)cc1` [Example 16, Phenyl-carbamic acid 4-(2-piperidin-1-yl-ethoxy)-benzyl ester], the IC50 under setting [1] is 352 nM.

Consider `CC(=O)N1CCC(N(CCC(=O)O)CCc2ccc(OCCc3ccccc3)cc2)CC1` [Example 91, 3-{(1-Acetyl-piperidin-4-yl)-[2-(4-phenethyloxy-phenyl)-ethyl]-amino}-propionic acid], for which the IC50 under setting [1] is 0.7 nM.

For the compound `CCCC1CCN(CCOc2ccc(OC(=O)Nc3ccccc3)cc2)CC1` [Example 41, Phenyl-carbamic acid 4-[2-(4-propyl-piperidin-1-yl)-ethoxy]-phenyl ester], the IC50 under setting [1] came out at 1 nM.

For `CC(C(=O)Oc1ccc(OCCN2CCCCC2)cc1)c1ccccc1` (stereo not shown) [Example 22, 2-Phenyl-propionic acid 4-(2-piperidin-1-yl-ethoxy)-phenyl ester], the IC50 under setting [1] turned out to be 21 nM.

In the case of `N#CCCCN(CCc1ccc(OCCc2ccccc2)cc1)C1CC1` [Example 33, 4-{Cyclopropyl-[2-(4-phenethyloxy-phenyl)-ethyl]-amino}-butyronitrile], under setting [1], the IC50 amounted to 49 nM.

As to `CCOC(=O)C1CCCN(C2CCN(CCc3ccc(OCCc4ccccc4)cc3)CC2)C1` (stereo not shown) [Example 18, 1′-[2-(4-Phenethyloxy-phenyl)-ethyl]-[1,4]′bipiperidinyl-3-carboxylic acid ethyl ester], under setting [1], the IC50 was 100 nM.

With `O=C(Oc1ccc(OCCN2CCCCC2)cc1)C(Cl)c1ccccc1` (stereo not shown) [Example 123, Chloro-phenyl-acetic acid 4-(2-piperidin-1-yl-ethoxy)-phenyl ester], under setting [1], the IC50 was found to be 150 nM.

With `O=C(Oc1ccccc1)Oc1ccc(OCCN2CCCCC2)cc1` [Example 20, Carbonic acid phenyl ester 4-(2-piperidin-1-yl-ethoxy)-phenyl ester], the IC50 under setting [1] was found to be 1 nM.

Turning to `O=C1CCCCN1C1CCN(CCc2ccc(OCCc3ccccc3)cc2)CC1` [Example 80, 1′-[2-(4-Phenethyloxy-phenyl)-ethyl]-[1,4′]bipiperidinyl-2-one], the IC50 under setting [1] came out at 11 nM.

In the case of `CCN(CCc1ccc(OC(=O)Nc2ccccc2)cc1)C1CCCCC1` [Example 59, Phenyl-carbamic acid 4-[2-(cyclohexyl-ethyl-amino)-ethyl]-phenyl ester], the IC50 under setting [1] was 0.6 nM.

With `O=C(Nc1ccccc1)Oc1ccc(CCN2CCC(O)CC2)cc1` [Example 58, Phenyl-carbamic acid 4-[2-(4-hydroxy-piperidin-1-yl)-ethyl]-phenyl ester], the IC50 under setting [1] is 2 nM.

As to `O=C(Nc1ccccc1)Oc1ccc(CCN2CCC(O)(c3ccccc3)CC2)cc1` [Example 17, Phenyl-carbamic acid 4-[2-(4-hydroxy-4-phenyl-piperidin-1-yl)-ethyl]-phenyl ester], under setting [1], the IC50 amounted to 33 nM.

In the case of `O=C(Nc1ccccc1)Oc1ccc(OCCN2CCC(Cc3ccccc3)CC2)cc1` [Example 50, Phenyl-carbamic acid 4-[2-(4-benzyl-piperidin-1-yl)-ethoxy]-phenyl ester], the IC50 under setting [1] was 21 nM.

Regarding `O=C(Nc1ccccc1)Oc1ccc(OCCN2CCC(O)(c3ccc(Br)cc3)CC2)cc1` [Example 56, Phenyl-carbamic acid 4-{2-[4-(4-bromo-phenyl)-4-hydroxy-piperidin-1-yl]-ethoxy}-phenyl ester], the IC50 under setting [1] was 3 nM.

Regarding `O=C(Nc1ccc(OCCN2CCCCC2)cc1)Oc1ccccc1` [Example 14, [4-(2-Piperidin-1-yl-ethoxy)-phenyl]-carbamic acid phenyl ester hydrochloride], the IC50 was 1790 nM.

For `CCOC(=O)C1CCN(CCOc2ccc(OC(=O)N(C)c3cccc(O)c3)cc2)CC1` [Example 8, 1-(2-{4-[(3-Hydroxy-phenyl)-methyl-carbamoyloxy]-phenoxy}-ethyl)-piperidine-4-carboxylic acid ethyl ester], the IC50 under setting [1] was determined as 100 nM.

Regarding `Fc1ccccc1CCOc1ccc(OCCN2CCCCC2)cc1` [Example 70, 1-(2-{4-[2-(2-Fluoro-phenyl)-ethoxy]-phenoxy}-ethyl)-piperidine], the IC50 under setting [1] was determined as 100 nM.

For the compound `CCOC(=O)CCN(C)CCc1ccc(OCCc2ccccc2)cc1` [Example 85, 3-{Methyl-[2-(4-phenethyloxy-phenyl)-ethyl]-amino}-propionic acid ethyl ester], the IC50 under setting [1] is 43 nM.

Turning to `O=C1c2ccccc2CC1Oc1ccc(OCCN2CCCCC2)cc1` (stereo not shown) [Example 126, 2-[4-(2-Piperidin-1-yl-ethoxy)-phenoxy]-indan-1-one], the IC50 under setting [1] was determined as 64 nM.

Take `OC1CCCN(Cc2ccc(OCCCc3ccccc3)cc2)C1` (stereo not shown) [Example 109, 1-[4-(3-Phenyl-propoxy)-benzyl]-piperidin-3-ol]: the IC50 under setting [1] stood at 23 nM.

Regarding `O=C(Nc1ccccc1F)Oc1ccc(OCCN2CCCCC2)cc1` [Example 43, (2-Fluoro-phenyl)-carbamic acid 4-(2-piperidin-1-yl-ethoxy)-phenyl ester], the IC50 under setting [1] is 7 nM.

`COC(=O)NC1CCN(Cc2ccc(OCCCc3ccccc3)cc2)CC1` [Example 121, {1-[4-(3-Phenyl-propoxy)-benzyl]-piperidin-4-yl}-carbamic acid methyl ester]: under setting [1], the IC50 was 8 nM.

With `CCOC(=O)C1CCN(CCOc2ccc(OCCCc3ccccc3)cc2)CC1` [Example 116, 1-{2-[4-(3-Phenyl-propoxy)-phenoxy]-ethyl}-piperidine-4-carboxylic acid ethyl ester], under setting [1], the IC50 worked out at 195 nM.

On to `CCCCN(CCCC)CCc1ccc(OC(=O)Nc2ccccc2)cc1` [Example 63, Phenyl-carbamic acid 4-(2-dibutylamino-ethyl)-phenyl ester], for which the IC50 under setting [1] was 0.6 nM.

`NC1CCN(Cc2ccc(OCCCc3ccccc3)cc2)CC1` [Example 118, 1-[4-(3-Phenyl-propoxy)-benzyl]-piperidin-4-ylamine]: the IC50 under setting [1] was 40 nM.

On to `CCOC(=O)CCNCCc1ccc(OCCc2ccccc2)cc1` [Example 84, 3-[2-(4-Phenethyloxy-phenyl)-ethylamino]-propionic acid ethyl ester], for which the IC50 under setting [1] turned out to be 10 nM.

Turning to `CCOC(=O)CCN(CCc1ccc(OCCc2ccccc2)cc1)C1CCCCC1` [Example 87, 3-{Cyclohexyl-[2-(4-phenethyloxy-phenyl)-ethyl]-amino}-propionic acid ethyl ester], the IC50 under setting [1] was 5 nM.

In the case of `O=C1CCCN1C1CCN(CCOc2ccc(OCCc3ccccc3)cc2)CC1` [Example 82, 1-{1-[2-(4-Phenethyloxy-phenoxy)-ethyl]-piperidin-4-yl}-pyrrolidin-2-one], under setting [1], the IC50 is 6 nM.

Take `CN(C(=O)Oc1ccc(OCCN2CCC(C(=O)O)CC2)cc1)c1cccc(O)c1` [Example 9, 1-(2-{4-[(3—hydroxy-phenyl)-methyl-carbamoyloxy]-phenoxy}-ethyl)-piperidine-4-carboxylic acid]: the IC50 under setting [1] is 389 nM.

As for `O=C(Nc1cccc(Cl)c1)Oc1ccc(OCCN2CCCCC2)cc1` [Example 45, (3-Chloro-phenyl)-carbamic acid 4-(2-piperidin-1-yl-ethoxy)-phenyl ester], the IC50 under setting [1] was 64 nM.

With `Oc1cccc(CCOc2ccc(OCCN3CCCCC3)cc2)c1` [Example 28, 3-{2-[4-(2-Piperidin-1-yl-ethoxy)-phenoxy]-ethyl}-phenol], under setting [1], the IC50 was determined as 22 nM.
